Reference: patent publication US11767330B2, “Citrate salt, pharmaceutical compositions, and methods of making and using the same” (Foghorn Therapeutics Inc., priority 2021, dated 2023)
Entries after “also recorded” stand apart in the source; their conditions may differ.

Experiments:
[1] = target: T1, BRD9 (Homo sapiens, UniProt Q9H8M2); assay: Pharmacodynamic BRD9 level in SYO-1 xenograft, western blot (Example 14); assay type: in vivo, mice; design: Tumors were lysed with 1×RIPA lysis buffer; from tissue; host or cells: SYO-1 xenograft tumours in BALB/c Nude mice; conditions: SYO-1 Xenograft model; for pharmacodynamic activity, BRD9 protein level by western blot: BALB/c Nude mice, single dose i.v. (Table 6)
T1 sequence (Q9H8M2 1-597): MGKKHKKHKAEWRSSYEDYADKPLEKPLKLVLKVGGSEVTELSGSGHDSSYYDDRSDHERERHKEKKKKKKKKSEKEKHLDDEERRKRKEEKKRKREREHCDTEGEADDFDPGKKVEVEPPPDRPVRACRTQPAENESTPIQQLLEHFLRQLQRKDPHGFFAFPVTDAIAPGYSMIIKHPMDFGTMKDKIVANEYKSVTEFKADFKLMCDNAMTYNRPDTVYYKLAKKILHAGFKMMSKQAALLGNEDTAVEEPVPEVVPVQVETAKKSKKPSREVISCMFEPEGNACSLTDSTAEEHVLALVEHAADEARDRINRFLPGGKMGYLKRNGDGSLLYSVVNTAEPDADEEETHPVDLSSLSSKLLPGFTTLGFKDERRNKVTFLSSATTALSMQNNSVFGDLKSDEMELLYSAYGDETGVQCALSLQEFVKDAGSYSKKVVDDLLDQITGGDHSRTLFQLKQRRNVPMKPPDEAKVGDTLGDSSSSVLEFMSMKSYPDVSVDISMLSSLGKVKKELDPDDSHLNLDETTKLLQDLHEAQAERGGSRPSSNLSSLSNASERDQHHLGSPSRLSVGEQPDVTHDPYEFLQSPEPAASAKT

[2] = target: T1, BRD9; assay: BRD9 degradation western blot in SYO-1 cells (Example 13); assay type: cell-based; design: degradation endogenous BRD9 protein in two synovial sarcoma cell lines; endogenous in cells; host or cells: SYO1 (SYO-1) synovial sarcoma cells; conditions: for DC50: read-out: Fitted DC50; for degradation of endogenous BRD9 protein at early time point: two synovial sarcoma cell lines (SYO-1 and ASKA)
Procedure: (§1) Synovial sarcoma cells were plated in 6-well plate at 500-100k cells/well and treated with serial concentrations of BRD9 degrader (10 nM top concentration, diluted 1:3) the next day for two time points at 37° C. Cells were then harvested, washed with cold PBS, and frozen in cell pellets at −80° C. Lysates were prepared by resuspending thawed pellets in 1×RIPA Lysis and Extraction buffer (Thermo Fisher, Cat #89900) with 1× Halt™ Protease and Phosphatase Inhibitor Cocktail, EDTA-free (Thermo Fisher, Cat #78441) and 1:1000 dilution Pierce™ Universal Nuclease for Cell Lysis 25 ku (Thermo Fisher, Cat #88700). Lysates were incubated on ice for 10 minutes and then centrifuged in 4° C. at maximum speed (15,000 rpm) for 10 minutes. Samples were then analyzed for total protein using BCA protein quantification assay and diluted to 1 μg/μL with lysis buffer and 1× NuPAGE™ LDS Sample Buffer (4×) (Thermo Fisher, Cat #NP0007) and 1×DTT from 30× stock (Cell Signaling Technologies, Cat #14265S). Samples with 20-25 ug of total protein were loaded into 4-12% Bis-Tris Mini-Gel with 1×MES Running buffer and run at 150V for 45 minutes. Gels were transferred using Trans-Blot® Turbo™ Transfer System (semi-dry) at 25V for 10 minutes (High MW setting) on nitrocellulose blots. Blots were blocked in 5% milk in TBST for 1 hour and probed with BRD9 antibody (Bethyl Labs, Cat #A303-781A, 1:750 for SYO1, and Cell Signaling Technologies, Cat #71232S for ASKA) and beta-Actin antibody (Cell Signaling Technologies, Cat #3700, 1:2,000) overnight at 4° C. The next day, blots were washed in TBST 3× and probed with 1:5,000 IRDye® 680LT Goat anti-Rabbit IgG Secondary Antibody (LiCOR, Cat #926-68021) and 1:10,000 IRDye® 800CW Goat anti-Mouse IgG Secondary Antibody (LiCOR, Cat #926-32210) in LiCOR Odyssey® Blocking Buffer (TBS) for 1 hour at room temperature. Blots were washed in TBST 3× and scanned at […] wavelength using LiCOR Odyssey® CLx Imaging System. Western blot signal was quantified using same analyses program included in the same machine. BRD9 signal was quantified by normalizing to beta-actin signal and all samples were normalized to DMSO, set as 100% signal.

[3] = Interconversion between Enantiomer 1 and Enantiomer 2 in cell medium (chiral LC/MS-MS); assay type: physicochemical; conditions: 0.2 μM dosed enantiomer, cell medium 37° C.
Procedure: For the assessment of interconversion between Enantiomer 1 and Enantiomer 2 in cell medium, the following test was performed. […] At designated time point, aliquot (50 μL) was taken and processed by the addition of 150 μL of acetonitrile containing 0.1% formic acid and internal standard for LC/MS-MS analysis. Peak areas of both Enantiomer 1 and Enantiomer 2 were determined for each sample using a chiral specific analytical method.

[4] = target: T1, BRD9; assay: BRD9 degradation western blot in ASKA cells (Example 13); assay type: cell-based; design: degradation endogenous BRD9 protein in two synovial sarcoma cell lines; endogenous in cells; host or cells: ASKA synovial sarcoma cells; conditions: for DC50: read-out: Fitted DC50
Procedure: as §1, with “Synovial sarcoma cells were plated in 6-well plate at 500-100k cells/well and treated with serial concentrations of BRD9 degrader (10 nM top concentration, diluted 1:3) the next day for two time points at 37° C.” left out

[5] = tested on: non-synovial control cancer cell lines (293T, A549, G401); assay: Growth of non-synovial control cancer cell lines (Example 2); assay type: cell-based
Procedure: (§2) Cells were treated with DMSO or the BRD9 degrader, Compound 1, at indicated concentrations, and proliferation was monitored from day 7 to day 14 by measuring confluency overtime using an IncuCyte live cell analysis system (FIG. 4). Growth medium and compounds were refreshed every 3-4 days.
(§3) Cells were seeded into 12-well plates and treated with DMSO, 1 μM BRD9 inhibitor, Compound 2 (also known as BI-7273, see Martin et al, J Med Chem. 59(10):4462-4475 (2016); see structure of compound 2 below), or 1 μM BRD9 degrader, Compound 1.
(§4) The number of cells was optimized for each cell line. Growth medium and compounds were refreshed every 3-5 days. SYO1, Yamato, A549, 293T and HS-SY-II cells were fixed and stained at day 11. ASKA cells were fixed and stained at day 23. Staining was done by incubation with crystal violet solution (0.5 g Crystal Violet, 27 ml 37% Formaldehyde, 100 mL 10×PBS, 10 mL Methanol, 863 dH20 to 1 L) for 30 min followed by 3× washes with water and drying the plates for at least 24 h at room temperature. Subsequently plates were scanned on an Odyssey CLx Imaging system (FIG. 5).
(§5) Cells were seeded into 96-well ultra-low cluster plate (Costar, #7007) in 200 μL complete media and treated at day 2 with DMSO, Staurosporin, or BRD9 degrader, Compound 1, at indicated doses (FIG. 2C). Media and compounds were changed every 5 d and cell colonies were imaged at day 14.

[6] = tested on: non-synovial control cancer cell lines (RD, HCT116, and Calu6); assay: Growth of non-synovial control cancer cell lines, crystal violet day 14 (Example 3); assay type: cell-based; conditions: daily treatment
Procedure: (§6) Procedure: Cells were seeded into 6-well or 12-well plates and were treated daily with a BRD9 degrader (Compound 1), a bromo-domain BRD9 binder (Compound 2), E3 ligase binder (lenalidomide), DMSO, or staurosporin (positive control for cell killing), at indicated concentrations. The number of cells was optimized for each cell line. Growth media was refreshed every 5 days. By day 14, medium was removed, cells were washed with PBS, and stained using 500 μL of 0.005% (w/v) crystal violet solution in 25% (v/v) methanol for at least 1 hour at room temperature. Subsequently plates were scanned on an Odyssey CLx Imaging system.

[7] = tested on: synovial sarcoma cell lines (SYO1, HS-SY-II, and ASKA); assay: Growth of synovial sarcoma cell lines, crystal violet day 14 (Example 3); assay type: cell-based; conditions: daily treatment
Procedure: as §6

[8] = tested on: synovial sarcoma cell lines (SYO1, Yamato, HS-SY-II, and ASKA); assay: Growth of synovial sarcoma cell lines, IncuCyte confluency / crystal violet / colony imaging (Example 2); assay type: cell-based; conditions: FIGS. 4, 5, 6
Procedure: as §2, §3, §4, §5

COc1cc(-c2cn(C)c(=O)c3cnc(N4CCC4)cc23)cc(OC)c1CN1CCC(CN2CCC3(CC2)CN(c2ccc4c(c2)C(=O)N([C@H]2CCC(=O)NC2=O)C4)C3)CC1 (single isomer, unassigned; enantiomer 1) [Enantiomer 1]
pharmacodynamic activity, BRD9 protein level by western blot [1]: inactive and did not degrade BRD9 protein
DC50 ([2]; SYO-1, 1 h): 2800 pM
DC50 ([2]; SYO-1, 6 h): 66 pM
degradation of endogenous BRD9 protein at early time point [2]: largely inactive or with much reduced degradation potency
% Enantiomer 2 ([3]; 2 h): 12%
% Enantiomer 2 ([3]; 6 h): 30%
DC50 ([4]; 0.5 h): > 10000 pM
BRD9 degradation activity ([4]; 30 minutes, up to 10 μM): no discernable activity
DC50 ([4]; 2 h): 380 pM

COc1cc(-c2cn(C)c(=O)c3cnc(N4CCC4)cc23)cc(OC)c1CN1CCC(CN2CCC3(CC2)CN(c2ccc4c(c2)C(=O)N([C@@H]2CCC(=O)NC2=O)C4)C3)CC1 (single isomer, unassigned; enantiomer 2) [Enantiomer 2]
pharmacodynamic activity, BRD9 protein level by western blot [1]: significant activity; also recorded: equipotent to racemic compound D1
duration of BRD9 degradation after a single dose ([1]; single dose i.v.): degraded BRD9 up to 72 hours after a single dose
difference in DC50 between Enantiomer 1 and Enantiomer 2 ([2]; SYO1, 6 h): ca. 3 fold
BRD9 degradation compared to racemic compound D1 ([2]; SYO-1, 1 or 6 hours (FIGS. 16 and 17)): slightly better than its racemic parent compound D1 in degrading BRD9 but overall comparable
DC50 ([2]; SYO-1, 1 h): 92 pM
DC50 ([2]; SYO-1, 6 h): 23 pM
active enantiomer in degrading BRD9 in cells ([2]; overall conclusion of Example 13): active enantiomer
degradation of endogenous BRD9 protein at early time point [2]: much more potent
% Enantiomer 2 ([3]; 0 h): 99%
% Enantiomer 2 ([3]; 0.5 h): 95%
% Enantiomer 2 ([3]; 2 h): 82%
% Enantiomer 2 ([3]; 6 h): 63%
DC50 ([4]; 0.5 h): 340 pM
difference in DC50 between Enantiomer 1 and Enantiomer 2 ([4]; 2 h): about 32 fold
DC50 ([4]; 2 h): 12 pM

COc1cc(-c2cn(C)c(=O)c3cnccc23)cc(OC)c1CN(C)C [Compound 2]
growth of non-synovial control cancer cell lines [5]: does not result in inhibition of the growth
growth of non-synovial control cancer cell lines [6]: did not result in inhibition of the growth
growth of synovial sarcoma cell lines [7]: inhibition of the growth of the cells
growth of synovial sarcoma cell lines [8]: inhibition of the growth of the cells
